Values joined by “and” are separate entries in the source; they are usually repeats but may differ in a detail not shown here. Equal values may be shown once. Read-outs that look alike come from different tables or passages of the source.
Experiments:
hTMEM16A (abc) = target: T1, hTMEM16A (abc) (Homo sapiens, UniProt Q5XXA6, DEL476-501); assay: IonWorks Barracuda perforated patch clamp, ionomycin-activated TMEM16A inward current; type: cell-based; settings: 10 μM ionomycin, Vhold −30 mV
T1 sequence (Q5XXA6 with tags, fused parts or gaps isoform Q5XXA6-5 DEL539-564): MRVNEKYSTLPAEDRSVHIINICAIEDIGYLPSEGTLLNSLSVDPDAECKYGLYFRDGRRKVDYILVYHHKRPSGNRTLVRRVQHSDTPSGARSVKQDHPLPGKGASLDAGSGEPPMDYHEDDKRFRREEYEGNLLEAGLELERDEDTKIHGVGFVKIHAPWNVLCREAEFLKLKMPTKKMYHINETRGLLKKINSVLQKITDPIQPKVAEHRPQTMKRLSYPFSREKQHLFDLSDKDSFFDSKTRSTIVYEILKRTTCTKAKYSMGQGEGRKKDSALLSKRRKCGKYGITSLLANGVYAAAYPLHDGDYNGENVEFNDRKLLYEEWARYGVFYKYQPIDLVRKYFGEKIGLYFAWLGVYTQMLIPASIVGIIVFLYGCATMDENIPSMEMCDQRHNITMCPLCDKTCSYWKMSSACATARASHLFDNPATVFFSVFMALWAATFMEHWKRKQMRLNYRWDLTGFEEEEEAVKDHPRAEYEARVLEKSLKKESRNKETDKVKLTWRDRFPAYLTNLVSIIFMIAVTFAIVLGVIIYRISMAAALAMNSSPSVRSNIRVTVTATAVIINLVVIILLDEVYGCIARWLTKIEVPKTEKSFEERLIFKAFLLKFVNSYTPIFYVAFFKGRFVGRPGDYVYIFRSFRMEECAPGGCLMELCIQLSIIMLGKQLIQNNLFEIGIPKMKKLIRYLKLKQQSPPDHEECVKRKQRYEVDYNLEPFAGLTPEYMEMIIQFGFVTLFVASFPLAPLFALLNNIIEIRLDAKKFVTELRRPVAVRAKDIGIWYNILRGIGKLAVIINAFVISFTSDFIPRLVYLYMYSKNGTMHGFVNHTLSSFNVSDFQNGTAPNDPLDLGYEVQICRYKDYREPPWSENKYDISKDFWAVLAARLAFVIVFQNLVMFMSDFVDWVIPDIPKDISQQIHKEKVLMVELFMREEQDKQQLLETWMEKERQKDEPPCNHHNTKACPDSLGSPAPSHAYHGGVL
Description: HEK293 cells stably expressing the human TMEM16A (abc) variant and CHO cells expressing the human CFTR gene were from ChanTest. The IonWorks Barracuda (IWB) procedure and data provided are from outsourced studies performed at ChanTest (Charles River Discovery, Cleveland, OH, United States) who were blinded as to the identity of the test articles or compounds provided by Amgen. As a control, benchmark inhibitors CFTRinh-172, GlyH-101 and benzbromarone were included amongst the blinded compounds submitted and performed as expected.
For IonWorks Barracuda studies on TMEM16A compounds, in brief eight test article concentrations were applied to naïve cells (n = 4, where n = the number of replicate wells/concentration) via steel needles of a 384-channel pipettor. Each application consists of addition of 20 μl of 2X concentrated test article solution to the total 40 μl final volume of the extracellular well of the Population Patch ClampTM (PPC) planar electrode. This addition is followed by mixing (one time) of the PPC well content. Duration of exposure to each test article concentration was at least 5 min. The electrophysiology procedure used: (a) Intracellular solution containing 50 mM CsCl, 90 mM CsF, 5 mM MgCl2, 1 mM EGTA, 10 mM HEPES, adjusted to pH 7.2 with CsOH; (b) Amphotericin B for patch perforation, where 30 mg/ml stock solution of amphotericin B in DMSO is added to internal solution to final concentration of 33.3 μg/ml; (c) Extracellular solution containing HEPES-buffered physiological saline (HBPS): 137 mM NaCl, 4 mM KCl, 1.8 mM CaCl2, 1 mM MgCl2, 10 mM HEPES, 10 mM glucose, adjusted to pH 7.4 with NaOH; and (d) Ionomycin stimulation of chloride currents where 10 μM ionomycin is added to all test solutions including vehicle and positive controls. […] After establishment of a whole-cell configuration via patch perforation (∼7–10 min exposure to amphotericin B), membrane currents were recorded using the on-board patch clamp amplifiers. […]

human bronchial rings = assay: Wire myograph bronchodilation of histamine pre-contracted human bronchial rings (Biopta)
Description: Details of bronchodilator studies shown in Figure 5H, 6 and Supplementary Figure 40 are provided below as part of the end assay report on Study CUR011 by Lee Christie (Biopta). Donors with any of the following conditions were excluded from the study: asthma, COPD, emphysema, lung cancer, cystic fibrosis, pulmonary fibrosis, pulmonary hypertension, pneumonia. Donors were also excluded if they had smoked in the past 12 months. Non-transplantable lung tissue was acquired from organ donors post mortem. Any macroscopically diseased/necrotic tissue was rejected. […] Human airway rings were set up under isometric conditions on a wire myograph in order to examine the influence of the test articles on bronchodilation. In order to assess tissue viability, the airways were challenged with carbachol (10 μM) and then isoprenaline (10 μM) to assess their constriction and relaxation responses, respectively. […] Viable airways were pre-constricted with histamine (10 μM), then exposed to one of the following cumulative concentration response curves (CCRCs): positive control, vehicle (water, volume matched to positive control), test article, vehicle (DMSO concentration matched to test articles). At the end of each CCRC, theophylline (2.2 mM) was added to induce maximal relaxation of the tissue. […] Airways were re-tensioned to 1.0 – 1.5 g if the tension had dropped below 1.0 g during the first 30 min of equilibration. (b) Airways were exposed to carbachol (bath concentration 10 μM) in order to measure their contractile responses and then isoprenaline (10 μM) in order to assess their relaxation. Airways were washed out and allowed to return to baseline. (c) Airways were pre-constricted with histamine (10 μM) before conducting a CCRC to the test article, the positive control (isoprenaline), test article vehicle or positive control vehicle.

mouse tracheal rings = assay: Bronchodilation of mouse tracheal rings at differing levels of carbachol pre-contraction; settings: EC95 level of carbachol, normalized to theophylline
Method: Standard procedures as listed above were used to prepare, mount and Wake-Up tracheal rings and the concentrations of carbachol providing EC25, EC50, EC75, or EC95 levels of contraction for each ring was determined as described above.

[1] = Homo sapiens, 10 μM histamine, read-out: EC50 bronchodilating histamine precontracted human airways
[2] = histamine pre-contracted, 10 μM

Row | SMILES | effect on ionomycin-activated inward current at −100 mV, perforated patch clamp (hTMEM16A (abc)) | EC50 (human bronchial rings; 10 μM histamine, read-out: EC50 bronchodilating histamine precontracted human airways) [nM] | EC50 (human bronchial rings; [1]) [nM] | time to steady-state relaxation of human bronchial rings (human bronchial rings; histamine pre-contracted, 1 μM) [min] | time to steady-state relaxation of human bronchial rings (human bronchial rings; [2]) | relaxation of airway rings (mouse tracheal rings) | EC50 (human bronchial rings; histamine pre-contracted, Donor 1 Ring 1, Donor 1 Ring 2, Donor 2 Ring 1, read-out: EC50 relaxation of human bronchial rings, individual rings)
1 | N#Cc1c(C(F)(F)F)cc(O)n2c1nc1ccccc12 [1PBC] | robust inhibition | – | – | – | – | – | –
2 | O=C(Nc1ccc([N+](=O)[O-])cc1Cl)c1cc(Cl)ccc1O [Niclosamide] | – | 967 | 970 | ~92 | ~50 min | roughly 100% | –
3 | O=C(O)c1cccnc1Nc1cccc(C(F)(F)F)c1 [Niflumic Acid] | inhibition (not stimulation) | – | – | – | – | – | –
4 | COc1cc([N+](=O)[O-])ccc1NC(=O)c1cc(Cl)c2ccccc2c1O [Cpd 4] | – | – | 3450 | – | 50 − 125 min | roughly 100% | ~1750 nM and ~6300 nM and 3000 nM
5 | CCc1oc2ccccc2c1C(=O)c1cc(Br)c(O)c(Br)c1 [Benzbromarone] | effective in blocking | – | 5650 | – | 80 to 140 min | roughly 100% | –
